# Species: Rattus norvegicus
# Assay: DrugMatrix - Regimen: Daily Repeat
# Format: toxicity, organism-based, Sprague-Dawley
# Parameters: regimen Daily Repeat, gender Male, age 6-8 weeks
# Details: in vivo, po, route oral GAVAGE, vehicle .5 % CMC; for ABSOLUTE BASOPHIL / ABSOLUTE EOSINOPHIL / ABSOLUTE LYMPHOCYTE / ABSOLUTE MONOCYTE / ABSOLUTE SEGMENTED NEUTROPHIL / BASOPHIL / EOSINOPHIL / ERYTHROCYTE COUNT / HEMATOCRIT / HEMOGLOBIN / LEUKOCYTE COUNT / LYMPHOCYTE / MEAN CORPUSCULAR HEMOGLOBIN / MEAN CORPUSCULAR HEMOGLOBIN CONCENTRATION / MEAN CORPUSCULAR VOLUME / MONOCYTE / NEUTROPHIL / NUCLEATED RED BLOOD CELLS / PLATELET COUNT: tissue Blood; for ALANINE AMINOTRANSFERASE / ALBUMIN / ALKALINE PHOSPHATASE / ASPARTATE AMINOTRANSFERASE / BLOOD UREA NITROGEN / CARBON DIOXIDE / CHLORIDE / CHOLESTEROL / CREATINE PHOSPHOKINASE / CREATININE / GLUCOSE / LACTATE DEHYDROGENASE / LIPASE / PHOSPHORUS / POTASSIUM / SODIUM / TOTAL BILIRUBIN / TOTAL PROTEIN / URIC ACID: tissue Plasma
# [1] = 25 mg/kg, 72 h, dose level Low, time 3 day
# [2] = 25 mg/kg, 120 h, dose level Low, time 5 day
# [3] = 1500 mg/kg, 72 h, dose level High, time 3 day
# [4] = 1500 mg/kg, 120 h, dose level High, time 5 day
smiles,measurement,setting,value
COC(=O)Nc1nc2ccc([S+]([O-])c3ccccc3)cc2[nH]1 (configuration not stated) [OXFENDAZOLE],ABSOLUTE BASOPHIL,[1],0 CELLS/uL
same,ABSOLUTE EOSINOPHIL,[1],48 CELLS/uL
same,ABSOLUTE LYMPHOCYTE,[1],11822 CELLS/uL
same,ABSOLUTE MONOCYTE,[1],187.33 CELLS/uL
same,ABSOLUTE SEGMENTED NEUTROPHIL,[1],2342.67 CELLS/uL
same,BASOPHIL,[1],0%
same,EOSINOPHIL,[1],0.33%
same,ERYTHROCYTE COUNT,[1],6.05 x10E6/uL
same,HEMATOCRIT,[1],36.2%
same,HEMOGLOBIN,[1],13.87 G/DL
same,LEUKOCYTE COUNT,[1],14.4 x10E3/uL
same,LYMPHOCYTE,[1],82%
same,MEAN CORPUSCULAR HEMOGLOBIN,[1],22.93 pg
same,MEAN CORPUSCULAR HEMOGLOBIN CONCENTRATION,[1],38.33 G/DL
same,MEAN CORPUSCULAR VOLUME,[1],59.8 fL
same,MONOCYTE,[1],1.33%
same,NEUTROPHIL,[1],16.33%
same,NUCLEATED RED BLOOD CELLS,[1],0 /100WBC
same,PLATELET COUNT,[1],1268.67 x10E3/uL
same,ALANINE AMINOTRANSFERASE,[1],56 u/L
same,ALBUMIN,[1],4.13 G/DL
same,ALKALINE PHOSPHATASE,[1],355 u/L
same,ASPARTATE AMINOTRANSFERASE,[1],78.67 u/L
same,BLOOD UREA NITROGEN,[1],14 mg/dL
same,CARBON DIOXIDE,[1],25 mmol/L
same,CHLORIDE,[1],99 MEQ/L
same,CHOLESTEROL,[1],78.67 mg/dL
same,CREATINE PHOSPHOKINASE,[1],173.33 u/L
same,CREATININE,[1],0.15 mg/dL
same,GLUCOSE,[1],161.67 mg/dL
same,LACTATE DEHYDROGENASE,[1],153 u/L
same,LIPASE,[1],10 u/L
same,PHOSPHORUS,[1],13.1 mg/dL
same,POTASSIUM,[1],8.18 MEQ/L
same,SODIUM,[1],142.9 MEQ/L
same,TOTAL BILIRUBIN,[1],0.2 mg/dL
same,TOTAL PROTEIN,[1],5.77 G/DL
same,URIC ACID,[1],2.07 mg/dL
same,ABSOLUTE BASOPHIL,[2],0 CELLS/uL
same,ABSOLUTE EOSINOPHIL,[2],0 CELLS/uL
same,ABSOLUTE LYMPHOCYTE,[2],12550 CELLS/uL
same,ABSOLUTE MONOCYTE,[2],0 CELLS/uL
same,ABSOLUTE SEGMENTED NEUTROPHIL,[2],983.33 CELLS/uL
same,BASOPHIL,[2],0%
same,EOSINOPHIL,[2],0%
same,ERYTHROCYTE COUNT,[2],5.35 x10E6/uL
same,HEMATOCRIT,[2],31.93%
same,HEMOGLOBIN,[2],12.77 G/DL
same,LEUKOCYTE COUNT,[2],13.53 x10E3/uL
same,LYMPHOCYTE,[2],93%
same,MEAN CORPUSCULAR HEMOGLOBIN,[2],23.9 pg
same,MEAN CORPUSCULAR HEMOGLOBIN CONCENTRATION,[2],40 G/DL
same,MEAN CORPUSCULAR VOLUME,[2],59.73 fL
same,MONOCYTE,[2],0%
same,NEUTROPHIL,[2],7%
same,NUCLEATED RED BLOOD CELLS,[2],0 /100WBC
same,PLATELET COUNT,[2],856.67 x10E3/uL
same,ALANINE AMINOTRANSFERASE,[2],57.67 u/L
same,ALBUMIN,[2],4.17 G/DL
same,ALKALINE PHOSPHATASE,[2],330.67 u/L
same,ASPARTATE AMINOTRANSFERASE,[2],89 u/L
same,BLOOD UREA NITROGEN,[2],16 mg/dL
same,CARBON DIOXIDE,[2],24 mmol/L
same,CHLORIDE,[2],100.67 MEQ/L
same,CHOLESTEROL,[2],74 mg/dL
same,CREATINE PHOSPHOKINASE,[2],346.33 u/L
same,CREATININE,[2],0.21 mg/dL
same,GLUCOSE,[2],161.67 mg/dL
same,LACTATE DEHYDROGENASE,[2],356.67 u/L
same,LIPASE,[2],9 u/L
same,PHOSPHORUS,[2],12.83 mg/dL
same,POTASSIUM,[2],7.04 MEQ/L
same,SODIUM,[2],141.83 MEQ/L
same,TOTAL BILIRUBIN,[2],0.2 mg/dL
same,TOTAL PROTEIN,[2],5.9 G/DL
same,URIC ACID,[2],2.33 mg/dL
same,ABSOLUTE BASOPHIL,[3],0 CELLS/uL
same,ABSOLUTE EOSINOPHIL,[3],0 CELLS/uL
same,ABSOLUTE LYMPHOCYTE,[3],9253.67 CELLS/uL
same,ABSOLUTE MONOCYTE,[3],174.67 CELLS/uL
same,ABSOLUTE SEGMENTED NEUTROPHIL,[3],671.67 CELLS/uL
same,BASOPHIL,[3],0%
same,EOSINOPHIL,[3],0%
same,ERYTHROCYTE COUNT,[3],5.79 x10E6/uL
same,HEMATOCRIT,[3],34.2%
same,HEMOGLOBIN,[3],13.37 G/DL
same,LEUKOCYTE COUNT,[3],10.1 x10E3/uL
same,LYMPHOCYTE,[3],91.67%
same,MEAN CORPUSCULAR HEMOGLOBIN,[3],23.07 pg
same,MEAN CORPUSCULAR HEMOGLOBIN CONCENTRATION,[3],39.1 G/DL
same,MEAN CORPUSCULAR VOLUME,[3],59.03 fL
same,MONOCYTE,[3],1.67%
same,NEUTROPHIL,[3],6.67%
same,NUCLEATED RED BLOOD CELLS,[3],0 /100WBC
same,PLATELET COUNT,[3],1138.67 x10E3/uL
same,ALANINE AMINOTRANSFERASE,[3],42.33 u/L
same,ALBUMIN,[3],4 G/DL
same,ALKALINE PHOSPHATASE,[3],328.67 u/L
same,ASPARTATE AMINOTRANSFERASE,[3],70.33 u/L
same,BLOOD UREA NITROGEN,[3],15.33 mg/dL
same,CARBON DIOXIDE,[3],27.33 mmol/L
same,CHLORIDE,[3],100.33 MEQ/L
same,CHOLESTEROL,[3],67.67 mg/dL
same,CREATINE PHOSPHOKINASE,[3],217.33 u/L
same,CREATININE,[3],0.17 mg/dL
same,GLUCOSE,[3],160.33 mg/dL
same,LACTATE DEHYDROGENASE,[3],90 u/L
same,LIPASE,[3],9.67 u/L
same,PHOSPHORUS,[3],11.6 mg/dL
same,POTASSIUM,[3],6.25 MEQ/L
same,SODIUM,[3],142.17 MEQ/L
same,TOTAL BILIRUBIN,[3],0.1 mg/dL
same,TOTAL PROTEIN,[3],5.43 G/DL
same,URIC ACID,[3],1.83 mg/dL
same,ABSOLUTE BASOPHIL,[4],0 CELLS/uL
same,ABSOLUTE EOSINOPHIL,[4],0 CELLS/uL
same,ABSOLUTE LYMPHOCYTE,[4],9784.67 CELLS/uL
same,ABSOLUTE MONOCYTE,[4],35.33 CELLS/uL
same,ABSOLUTE SEGMENTED NEUTROPHIL,[4],380 CELLS/uL
same,BASOPHIL,[4],0%
same,EOSINOPHIL,[4],0%
same,ERYTHROCYTE COUNT,[4],5.39 x10E6/uL
same,HEMATOCRIT,[4],32.9%
same,HEMOGLOBIN,[4],13.2 G/DL
same,LEUKOCYTE COUNT,[4],10.2 x10E3/uL
same,LYMPHOCYTE,[4],95.67%
same,MEAN CORPUSCULAR HEMOGLOBIN,[4],24.53 pg
same,MEAN CORPUSCULAR HEMOGLOBIN CONCENTRATION,[4],40.13 G/DL
same,MEAN CORPUSCULAR VOLUME,[4],61.07 fL
same,MONOCYTE,[4],0.33%
same,NEUTROPHIL,[4],4%
same,NUCLEATED RED BLOOD CELLS,[4],0 /100WBC
same,PLATELET COUNT,[4],1442.33 x10E3/uL
same,ALANINE AMINOTRANSFERASE,[4],41 u/L
same,ALBUMIN,[4],4.17 G/DL
same,ALKALINE PHOSPHATASE,[4],331.33 u/L
same,ASPARTATE AMINOTRANSFERASE,[4],79.67 u/L
same,BLOOD UREA NITROGEN,[4],15.33 mg/dL
same,CARBON DIOXIDE,[4],27.67 mmol/L
same,CHLORIDE,[4],101.67 MEQ/L
same,CHOLESTEROL,[4],69.67 mg/dL
same,CREATINE PHOSPHOKINASE,[4],228 u/L
same,CREATININE,[4],0.16 mg/dL
same,GLUCOSE,[4],143 mg/dL
same,LACTATE DEHYDROGENASE,[4],165 u/L
same,LIPASE,[4],9.33 u/L
same,PHOSPHORUS,[4],13.13 mg/dL
same,POTASSIUM,[4],6.91 MEQ/L
same,SODIUM,[4],146.13 MEQ/L
same,TOTAL BILIRUBIN,[4],0.13 mg/dL
same,TOTAL PROTEIN,[4],5.77 G/DL
same,URIC ACID,[4],1.7 mg/dL

# — ChEMBL document CHEMBL3885881, “DrugMatrix”
